From US8105845B2, “System and method for carrying out multiple binding reactions in an array format” (Bio-Rad Haifa Ltd., priority 2003, dated 2012)

What was measured:
[1] = target: Cytochrome-P450 (CYP) 2C9 (Homo sapiens, UniProt P11712); experiment: SPR array binding of compound targets to immobilized CYP450 enzyme probes
[2] = target: Cytochrome-P450 (CYP) 2D6 (Homo sapiens, UniProt P10635); experiment: biochemical
[3] = target: Cytochrome-P450 (CYP) 2C19 (Homo sapiens, UniProt P33261); experiment: biochemical
Cytochrome-P450 (CYP) 2C19, sequence (P33261 whole entry): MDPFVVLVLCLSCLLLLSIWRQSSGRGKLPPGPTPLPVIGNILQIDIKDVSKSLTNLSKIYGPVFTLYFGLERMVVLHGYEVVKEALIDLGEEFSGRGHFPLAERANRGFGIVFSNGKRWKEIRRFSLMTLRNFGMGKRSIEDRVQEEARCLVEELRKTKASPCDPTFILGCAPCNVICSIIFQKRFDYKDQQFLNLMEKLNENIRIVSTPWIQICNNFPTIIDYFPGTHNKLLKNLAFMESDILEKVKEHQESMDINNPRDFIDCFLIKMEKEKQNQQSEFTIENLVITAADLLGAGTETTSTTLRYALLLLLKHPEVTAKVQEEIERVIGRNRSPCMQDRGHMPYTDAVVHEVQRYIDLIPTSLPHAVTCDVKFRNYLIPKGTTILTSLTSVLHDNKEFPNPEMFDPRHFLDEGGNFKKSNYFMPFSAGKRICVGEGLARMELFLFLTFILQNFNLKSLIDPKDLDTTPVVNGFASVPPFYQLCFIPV

[4] = target: T1, Cytochrome-P450 (CYP) 1A2 (Homo sapiens, UniProt P05177); experiment: biochemical
T1 sequence (P05177 1-516): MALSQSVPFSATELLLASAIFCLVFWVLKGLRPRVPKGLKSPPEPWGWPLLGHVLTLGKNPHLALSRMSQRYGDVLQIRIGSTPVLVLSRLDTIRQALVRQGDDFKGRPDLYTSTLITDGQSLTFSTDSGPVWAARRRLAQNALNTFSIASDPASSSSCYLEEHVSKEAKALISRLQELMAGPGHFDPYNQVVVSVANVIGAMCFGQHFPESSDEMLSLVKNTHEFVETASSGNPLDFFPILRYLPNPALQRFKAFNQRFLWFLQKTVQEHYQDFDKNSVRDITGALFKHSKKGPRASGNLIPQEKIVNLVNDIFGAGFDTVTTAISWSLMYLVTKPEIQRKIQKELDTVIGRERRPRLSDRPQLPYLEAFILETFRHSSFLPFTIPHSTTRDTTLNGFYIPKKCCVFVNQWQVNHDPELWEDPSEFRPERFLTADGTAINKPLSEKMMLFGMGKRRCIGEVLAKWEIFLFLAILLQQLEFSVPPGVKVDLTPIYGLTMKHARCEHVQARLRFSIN

Cytochrome-P450 (CYP) 2C9, sequence (P11712 whole entry): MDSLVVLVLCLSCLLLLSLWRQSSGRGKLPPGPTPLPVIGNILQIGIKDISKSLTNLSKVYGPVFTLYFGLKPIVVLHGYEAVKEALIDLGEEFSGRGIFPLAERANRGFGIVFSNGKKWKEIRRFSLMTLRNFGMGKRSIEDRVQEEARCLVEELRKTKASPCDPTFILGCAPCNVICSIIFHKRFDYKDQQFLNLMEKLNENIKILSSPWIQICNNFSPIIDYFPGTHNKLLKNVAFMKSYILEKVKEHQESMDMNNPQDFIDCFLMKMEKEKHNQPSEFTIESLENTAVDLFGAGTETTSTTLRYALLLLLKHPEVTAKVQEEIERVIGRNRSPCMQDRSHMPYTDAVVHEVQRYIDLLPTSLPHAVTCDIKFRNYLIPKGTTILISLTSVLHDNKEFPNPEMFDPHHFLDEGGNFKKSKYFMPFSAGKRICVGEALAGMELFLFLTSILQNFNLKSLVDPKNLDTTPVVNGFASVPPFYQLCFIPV
Cytochrome-P450 (CYP) 2D6, sequence (P10635 whole entry): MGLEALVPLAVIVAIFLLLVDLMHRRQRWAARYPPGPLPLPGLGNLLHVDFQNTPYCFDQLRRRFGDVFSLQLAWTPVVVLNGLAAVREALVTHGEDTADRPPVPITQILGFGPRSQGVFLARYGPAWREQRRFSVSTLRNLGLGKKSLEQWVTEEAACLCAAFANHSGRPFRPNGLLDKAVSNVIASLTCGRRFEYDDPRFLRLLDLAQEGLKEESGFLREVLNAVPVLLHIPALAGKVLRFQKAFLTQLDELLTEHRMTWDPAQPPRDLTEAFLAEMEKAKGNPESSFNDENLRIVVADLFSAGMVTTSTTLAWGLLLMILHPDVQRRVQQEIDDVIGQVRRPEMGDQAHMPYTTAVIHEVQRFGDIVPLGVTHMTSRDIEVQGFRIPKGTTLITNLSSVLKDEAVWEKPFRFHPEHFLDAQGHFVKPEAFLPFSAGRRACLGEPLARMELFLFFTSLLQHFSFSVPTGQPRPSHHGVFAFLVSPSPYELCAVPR

| SMILES | Kd [1] | Kd [2] | Kd [3] | Kd [4] |
| --- | --- | --- | --- | --- |
| COc1ccc2c(c1)[C@]13CCCC[C@@H]1[C@H](C2)N(C)CC3 [Dexomethorphan] | 28.3 mM | 60.4 mM | 7.9 mM | – |
| CC(C)NCC(O)COc1cccc2ccccc12 (stereo not drawn) [Propranolol] | 5.13 mM | – | 6.59 mM | 0.873 mM |
| O=C(O)Cc1ccccc1Nc1c(Cl)cccc1Cl [Diclofenac] | – | 0.681 mM | 0.717 mM | 14.2 mM |
